Source: US8546433B2, “Axl inhibitors for use in combination therapy for preventing, treating or managing metastatic cancer” (Rigel Pharmaceuticals, Inc., priority 2009, dated 2013)

Legend:
4T1 tumor cells [1] = test: Mouse 4T1 breast tumor model: Compound A in combination with Cisplatin in preventing lung and liver metastasis (Biological Example 2); format: in vivo, BALB/c mice; details: 21 days, FIG. 7
Description: Using a variation of the mouse 4T1 breast tumor model, as described in Current Protocols in Immunology (2000), 20.2.1-20.2.16, Compound A in combination with Cisplatin was assayed to determine the efficacy of the combination therapy to prevent, treat or manage metastatic cancer in BALB/c mice.
• Vehicle: 0.5% HPMC/0.1% Tween. • Compound A: Preformulated dosing solutions in vehicle for 7 mg/kg and 21 mg/kg for oral administration. • Cisplatin: Diluted in sterile saline for 1.2 mg/kg (suboptimal clinical formulation) for intravenous administration. Protocol
(§1) Sixty-six BALB/c mice were inoculated with 5×10^5 4T1 tumor cells (ATCC) orthotoically into the third mammary fat pad. On Day 0 of the study (2 days post-inoculation), 60 mice were randomized into 6 groups (10 mice per group). Dose administration began on Day 0 and continued for 21 days (3 weeks). Compound A was administered twice a day, Cisplatin was administered once a week, and Zometa was administered three times weekly. Tumor measurements were performed three times per week, starting when tumors were palpable (approximately 3×3 mm). Body weight measurements were taken three times per week at the same time each day. Tumor and body weight measurements fall all mice were measured prior to dose administration.
On Day 21 of the treatment, mice were euthanized and the lungs exposed and the number of surface lung metastases were counted. The size of each metastasis was measured using a caliper in one dimenstion and categorized as follows:
Medium: Greater or equal to 2 mm
Large: Greater or equal to 3 mm
The lungs and livers from all mice were excised and placed in PLP fixative and stained for micrometastasis quantification.

4T1 tumor cells [2] = test: Mouse 4T1 breast tumor model: Compound A in preventing lung and liver metastasis of a primary breast tumor (Biological Example 1); format: in vivo, BALB/c mice; details: 21 days; for effect on the number of large lung metastases, difference to vehicle: FIG. 3; for effect on the incidence of liver micrometastases, difference to Cisplatin at 1.2 mg/kg / effect on the incidence of liver micrometastases, difference to vehicle: FIG. 4; for effect on the number of medium lung metastases, difference to vehicle: FIG. 2
Description: as §1, with “Protocol Eighty-eight” for “Sixty-six”, “80” for “60”, “8” for “6”, “administration. On Day 21 of the treatment, mice were euthanized and the lungs exposed and the numbers of surface lung metastases were counted. The size of each metastasis was measured using a caliper in one dimenstion and categorized as follows: Small: Less than 2 mm Medium: Greater or equal to 2 mm Large: Greater or equal to 3 mm The lungs and livers from all mice were excised and placed in PLP fixative and stained for micrometastasis quantification.” for “administration.”

[3] = Cisplatin 1.2 mg/kg intravenous once a week, p<0.05, Mann-Whitney Test
[4] = Cisplatin 2.4 mg/kg intravenous once a week, p<0.05, Mann-Whitney Test
[5] = Compound A 25 mg/kg oral twice a day, p<0.05, Mann-Whitney Test
[6] = Compound A 45 mg/kg oral twice a day, p<0.05, Mann-Whitney Test

N.N.[Cl][Pt][Cl] [Cisplatin, cis-diamminedichloridoplatinum(II), reference compound]
significant: effect on reducing the number of large lung metastases, difference to vehicle (4T1 tumor cells [1]; [3]) | effect on the number of large lung metastases, difference to vehicle (4T1 tumor cells [2]; [3]) | effect on the number of large lung metastases, difference to vehicle (4T1 tumor cells [2]; [4]) | effect on the incidence of liver micrometastases, difference to Cisplatin at 1.2 mg/kg (4T1 tumor cells [2]; [4]) | effect on the incidence of liver micrometastases, difference to Cisplatin at 1.2 mg/kg (4T1 tumor cells [2]; Cisplatin 4 mg/kg intravenous once a week, p<0.05, Mann-Whitney Test) | effect on the number of medium lung metastases, difference to vehicle (4T1 tumor cells [2]; cisplatin 4 mg/kg intravenous once a week, p<0.001, Mann-Whitney Test)

Nc1nc(Nc2ccc3c(c2)CC[C@@H](N2CCCC2)CC3)nn1-c1cc2c(nn1)-c1ccccc1CCC2 [Compound A, 1-(6,7-dihydro-5H-benzo[6,7]cyclohepta[1,2-c]pyridazin-3-yl)-N^3-((7-(S)-pyrrolidin-1-yl)-6,7,8,9-tetrahydro-5H-benzo[7]annulene-2-yl)-1H-1,2,4-triazole-3,5-diamine]
significant: effect on reducing the number of large lung metastases, difference to vehicle (4T1 tumor cells [1]; Compound A 7 mg/kg oral twice a day, p<0.01, Mann-Whitney Test) | effect on reducing the number of large lung metastases, difference to vehicle (4T1 tumor cells [1]; Compound A 21 mg/kg oral twice a day, p<0.01, Mann-Whitney Test) | effect on the number of large lung metastases, difference to vehicle (4T1 tumor cells [2]; [5]) | effect on the incidence of liver micrometastases, difference to vehicle (4T1 tumor cells [2]; [5]) | effect on the number of medium lung metastases, difference to vehicle (4T1 tumor cells [2]; [6]) | effect on the incidence of liver micrometastases, difference to vehicle (4T1 tumor cells [2]; [6]) | effect on the incidence of liver micrometastases, difference to vehicle (4T1 tumor cells [2]; Compound A 75 mg/kg oral twice a day, p<0.05, Mann-Whitney Test)

O=P(O)(O)C(O)(Cn1ccnc1)P(=O)(O)O [Zometa, reference compound]
significant: effect on the incidence of liver micrometastases, difference to vehicle (4T1 tumor cells [2]; Zometa 0.1 mg/kg subcutaneous three times weekly, p<0.05, Mann-Whitney Test)
